Data set [1] concerns normal ICR mice. Briefly: In vivo hypoglycemic activity of GLP-1 analogues, duodenal administration, oral glucose loading. Further details: species or system mouse. The note with it: for hypoglycemic activity, duodenal administration (in words): 10 μmol/kg duodenal, glucose 2 g/kg by gavage. On the procedure: FIG. 22. In vivo hypoglycemic activities of GLP-1 analogues by duodenal administration. Normal ICR mice were anesthetized with inhalation of ether, and the duodenum was surgically removed and injected with GLP-1 and its analogues or a corresponding volume of saline ([…], n=9-11), and finally the incision was sewed. After 15 min, glucose solution (2 g/kg) was administered by gavage, and blood was collected from the tail tips at 15, 30, and 60 min after glucose administration. Blood glucose was measured using glucose oxidase method, and blood glucose values and area under the blood glucose curve (AUC) were calculated at each timepoint.
Drug delivery technology can use enteric coating technology to achieve oral administration targeting the small intestine. In order to test the feasibility of direct small intestinal administration of GLP-1, the present invention designs duodenal administration. The experimental process is as follows: The day before the experiment, all of the animals were fasted for 15-16 hours with water ad libitum. On the day of the experiment, the animals were randomly divided according to body weight (n=9-11 or 14-15 for combined administration). Firstly, the blood was collected from the tail tip at 0 hours, and then the animals were anesthetized by inhaling ether. A small incision was made near the underside of the stomach using surgical scissors, and the duodenum was carefully removed and administered with GLP-1 analogs (SEQ ID NOs: 194-209, 10 μmol/kg) or saline. Finally, the wound was sutured. After 15 minutes, the glucose solution (2 g/kg) was administered by gavage, and the blood were collected from the tail tips at 15, 30, and 60 minutes after glucose administration. Blood glucose was measured using the glucose oxidase method. The blood glucose at each moment and area under the blood glucose-time curve (AUC) were calculated.
AUC mg×h/dL)=(BG0+BG15)×15/60+(BG15+BG30)×15/60+(BG30+BG60)×30/60. BG0, BG15, BG30, and BG60 represent blood glucose levels at 0, 15, 30, and 60 minutes after glucose loading, respectively.

The test system of data set [2] is normal ICR mice. The data set can be described thus: In vivo hypoglycemic activity of GLP-1 analogues, subcutaneous administration, oral glucose loading. Further details: species or system mouse. Conditions: for hypoglycemic activity, subcutaneous injection (in words): normal ICR mice, 1 μmol/kg s.c., glucose 2 g/kg by gavage. On the procedure: FIG. 21. In vivo hypoglycemic activities of GLP-1 analogues by subcutaneous administration. Normal ICR mice were subcutaneously injected with GLP-1 and its analogues or corresponding volumes of saline (1.0 μmol/kg, n=10). After 30 min, glucose solution (2 g/kg) was administered by gavage, and blood was collected from the tail tip at 30, 60, and 120 min after glucose administration. Blood glucose was measured using glucose oxidase method, and blood glucose values and area under the blood glucose curve (AUC) were calculated at each timepoint.
The day before the experiment, all of the animals were fasted for 15-16 hours with water ad libitum. On the day of the experiment, the animals were randomly divided according to body weight (n=10). Firstly, the blood was collected from the tail tip at 0 hour, and then the animals were administered subcutaneously with GLP-1 analog (SEQ ID NOs: 194-201, 1 μmol/kg) or saline. After 30 minutes, the animals were administered by gavage with glucose solution (2 g/kg), and the blood was collected from the tail tip at 30, 60, and 120 minutes later. Blood glucose was measured using glucose oxidase method. The blood glucose and area under the blood glucose-time curve (AUC) were calculated.

The target of a further data set is DPP-IV (Homo sapiens, UniProt P27487). The data set can be described thus: Tolerance of GLP-1 and its analogues to DPP-IV (RP-HPLC remaining peak area). Format: in vitro ADME. Conditions: peptide 25 μM, DPP-IV 0.5 ng/μL, 37° C. On the procedure:
Mix by centrifugation at 8000 rpm for 30 seconds.
(2) Arrange a certain volume of 0.005 μg/μL DPP-IV solution in another sterile EP.

Data set [3] in a line: Stability of GLP-1 and its analogues in human serum. Conditions: 25% (v/v) human serum.
Description: The amount of the prototype peptide at 0 h was taken as 100%. At different time point, 100 μL aliquots was taken out, and 300 μL precooled anhydrous methanol was added to terminate the reaction. The remaining percentage (%) of the peptide relative to the prototype peptide at that time point was analyzed by reverse phase high performance liquid chromatography. The experiment was performed with three replicates, and data were expressed as “mean±standard deviation”. The sample was subjected to high-speed centrifugation, supernatant extraction, and freeze drying, followed by dissolution in 50% (v/v) methanol/water solution, and analyzed by reverse phase high performance liquid chromatography. The experiment was performed with three replicates, and data were expressed as “mean±standard deviation”.
Invert and mix thoroughly, then leave at −20° C. overnight. At the same time, take three sterile EP tubes and add 25 μL of human serum, 75 μL of 50 mM Tris-HCl buffer (pH7.0), and 300 μL of pre-cold absolute methanol. Invert and mix thoroughly, then leave at −20° C. overnight as a negative control, so as to eliminate the interference of proteins or peptides contained in human serum at the peak time of the target peptide after methanol precipitation.
Arrange a certain volume of human serum in another sterile EP. Incubate the EP tubes containing peptides and serum at 37° C. for 10 min, and add 137.5 μL of human serum to each EP tube containing peptides and mix well. […] Start timing and remove 100 μL of reaction solution at 0.5, 2.0, 4.0, 8.0, and 12.0 h later, respectively. Add 300 μL of pre-cold absolute methanol. Invert and mix thoroughly, then leave at −20° C. overnight. […] There are three replicates at each time point, and the peak area of the peptide at each time point is detected using reverse phase high-performance liquid chromatography (RP-HPLC). The ratio of the remaining peak area of the sample at detection time T (h) to the peak area of the prototype peptide at 0 h is calculated as the remaining percentage (%) of the peptide.
A further data set addresses elastase (Sus scrofa, UniProt P00772). Briefly: in vitro. Conditions: isolated enzyme elastase. The essentials: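 Peptides and elastase (0.5 μg/μL solution) each pre-warmed 5 min at 37° C, then mixed; aliquots taken at 1.5 to 60.0 min and quenched with 10% TFA. Remaining intact peptide quantified as RP-HPLC peak area.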
Setting [4] is: duodenal 10 μmol/kg, normal ICR mice, after oral glucose loading.
[5] abbreviates: pH 8, Remaining peak area (%)/elastase.

DPP-IV, sequence (P27487 whole entry, species assumed): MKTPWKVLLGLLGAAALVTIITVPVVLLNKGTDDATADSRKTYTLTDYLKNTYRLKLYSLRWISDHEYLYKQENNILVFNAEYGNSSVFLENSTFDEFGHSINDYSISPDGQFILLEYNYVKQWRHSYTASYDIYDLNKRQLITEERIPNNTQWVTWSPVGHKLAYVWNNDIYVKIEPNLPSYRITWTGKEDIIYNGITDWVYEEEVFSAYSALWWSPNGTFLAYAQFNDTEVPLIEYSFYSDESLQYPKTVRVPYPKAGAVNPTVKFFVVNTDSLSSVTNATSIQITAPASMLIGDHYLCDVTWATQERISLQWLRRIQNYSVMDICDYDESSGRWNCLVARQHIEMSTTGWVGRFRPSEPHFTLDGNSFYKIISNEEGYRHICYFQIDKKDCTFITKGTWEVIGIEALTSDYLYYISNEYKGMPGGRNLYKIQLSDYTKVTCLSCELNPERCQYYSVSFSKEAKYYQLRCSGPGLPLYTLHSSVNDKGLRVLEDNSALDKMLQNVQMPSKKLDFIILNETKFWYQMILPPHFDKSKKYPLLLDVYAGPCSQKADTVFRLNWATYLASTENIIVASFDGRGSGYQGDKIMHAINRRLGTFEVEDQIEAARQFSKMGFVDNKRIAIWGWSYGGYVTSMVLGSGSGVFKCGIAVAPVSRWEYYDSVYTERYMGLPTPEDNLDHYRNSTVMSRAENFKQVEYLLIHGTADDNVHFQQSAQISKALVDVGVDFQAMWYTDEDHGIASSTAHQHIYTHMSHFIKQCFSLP
elastase, sequence (P00772 27-266): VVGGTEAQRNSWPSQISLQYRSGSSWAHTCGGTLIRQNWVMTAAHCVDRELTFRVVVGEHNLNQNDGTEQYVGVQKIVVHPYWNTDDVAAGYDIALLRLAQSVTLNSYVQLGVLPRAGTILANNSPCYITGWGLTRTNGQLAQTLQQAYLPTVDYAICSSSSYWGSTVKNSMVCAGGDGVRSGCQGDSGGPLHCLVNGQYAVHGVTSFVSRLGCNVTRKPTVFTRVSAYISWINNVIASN

Regarding “Gly-Arg-Cys-Thr-Lys-Ser-Ile-Pro-Pro-Ile-Cys-Phe-Pro-Gly-Gly-Gln-Arg-Phe-Ser-Arg-Gly-Gly-His-Ala-Glu-Gly-Thr-Phe-Thr-Ser-Asp-Val-Ser-Ser-Tyr-Leu-Glu-Gly-Gln-Ala-Ala-Lys-Glu-Phe-Ile-Ala-Trp-Leu-Val-Lys-Gly-Arg-Gly-Gly-Lys (GRCTKSIPPICFPGGQRFSRGGHAEGTFTSDVSSYLEGQAAKEFIAWLVKGRGGK; Synthetic construct BT1-N-GLP-1) [SEQ ID NO: 195]”, in the data set with normal ICR mice [1] (normal ICR mice), the “hypoglycemic activity, duodenal administration (in words)” value is on record as “did not influence the blood glucose levels”. The “hypoglycemic activity, subcutaneous injection (in words)” value with normal ICR mice [2] is “significantly reduced the blood glucose levels at 30 and 60 minutes after oral glucose loading and the AUC”.

For the compound “Gly-Gln-Arg-Phe-Ser-Arg-Gly-Gly-His-Ala-Glu-Gly-Thr-Phe-Thr-Ser-Asp-Val-Ser-Ser-Tyr-Leu-Glu-Gly-Gln-Ala-Ala-Lys-Glu-Phe-Ile-Ala-Trp-Leu-Val-Lys-Gly-Arg-Gly-Gly-Lys-Gly-Arg-Cys-Thr-Lys-Ser-Ile-Pro-Pro-Ile-Cys-Phe-Pro (GQRFSRGGHAEGTFTSDVSSYLEGQAAKEFIAWLVKGRGGKGRCTKSIPPICFP; Synthetic construct N-GLP-1-BT1) [SEQ ID NO: 197]”, the “hypoglycemic activity, duodenal administration (in words)” value with normal ICR mice [1] (normal ICR mice) is on record as “did not influence the blood glucose levels”. In addition, in the data set on normal ICR mice [2], the “hypoglycemic activity, subcutaneous injection (in words)” value is “significantly reduced the blood glucose levels at 30 and 60 minutes after oral glucose loading and the AUC”.

With “Cys-Gly-Arg-Ala-Thr-Lys-Ser-Ile-Pro-Pro-Ile-Cys-Phe-Gly-Gly-Gln-Arg-Phe-Ser-Arg-Gly-Gly-His-Ala-Glu-Gly-Thr-Phe-Thr-Ser-Asp-Val-Ser-Ser-Tyr-Leu-Glu-Gly-Gln-Ala-Ala-Lys-Glu-Phe-Ile-Ala-Trp-Leu-Val-Lys-Gly-Arg-Gly-Gly-Lys (CGRATKSIPPICFGGQRFSRGGHAEGTFTSDVSSYLEGQAAKEFIAWLVKGRGGK; Synthetic construct BT9-N-GLP-1) [SEQ ID NO: 199]”, the “hypoglycemic activity, duodenal administration (in words)” value in the data set on normal ICR mice [1] (normal ICR mice) is recorded as “did not influence the blood glucose levels”. Further, the “hypoglycemic activity, subcutaneous injection (in words)” value in the data set on normal ICR mice [2] was “significantly reduced the blood glucose levels at 30 and 60 minutes after oral glucose loading and the AUC”.

For “Gly-Gln-Arg-Phe-Ser-Arg-Gly-Gly-His-Ala-Glu-Gly-Thr-Phe-Thr-Ser-Asp-Val-Ser-Ser-Tyr-Leu-Glu-Gly-Gln-Ala-Ala-Lys-Glu-Phe-Ile-Ala-Trp-Leu-Val-Lys-Gly-Arg-Gly-Gly-Lys-Gly-Cys-Gly-Arg-Ala-Thr-Lys-Ser-Ile-Pro-Pro-Ile-Cys-Phe (GQRFSRGGHAEGTFTSDVSSYLEGQAAKEFIAWLVKGRGGKGCGRATKSIPPICF; Synthetic construct N-GLP-1-BT9) [SEQ ID NO: 201]”, the “hypoglycemic activity, duodenal administration (in words)” value in the data set on normal ICR mice [1] (normal ICR mice) was “did not influence the blood glucose levels”. For the same compound, the “hypoglycemic activity, subcutaneous injection (in words)” value in the data set on normal ICR mice [2] was “significantly reduced the blood glucose levels at 30 and 60 minutes after oral glucose loading and the AUC”.

The term fraction remaining denotes the share of the starting amount still present when the sample was taken. As to `CC[C@H](C)[C@H](NC(=O)[C@H](Cc1ccccc1)NC(=O)[C@H](CCC(=O)O)NC(=O)[C@H](CCCCN)NC(=O)[C@H](C)NC(=O)[C@H](C)NC(=O)[C@H](CCC(N)=O)NC(=O)CNC(=O)[C@H](CCC(=O)O)NC(=O)[C@H](CC(C)C)NC(=O)[C@H](Cc1ccc(O)cc1)NC(=O)[C@H](CO)NC(=O)[C@H](CO)NC(=O)[C@@H](NC(=O)[C@H](CC(=O)O)NC(=O)[C@H](CO)NC(=O)[C@@H](NC(=O)[C@H](Cc1ccccc1)NC(=O)[C@@H](NC(=O)CNC(=O)[C@H](CCC(=O)O)NC(=O)[C@H](C)NC(=O)[C@H](Cc1c[nH]cn1)NC(=O)CNC(=O)CNC(=O)[C@@H](NC(=O)[C@@H]1CCCN1C(=O)[C@@H](NC(=O)CNC(=O)CNC(=O)[C@H](CCC(N)=O)NC(=O)[C@@H]1CSSC[C@H](NC(=O)[C@@H](N)CC(C)C)C(=O)N[C@@H]([C@@H](C)O)C(=O)N[C@@H](C)C(=O)N[C@@H](CO)C(=O)N[C@@H]([C@@H](C)CC)C(=O)N2CCC[C@H]2C(=O)N2CCC[C@H]2C(=O)N[C@@H]([C@@H](C)CC)C(=O)N1)[C@@H](C)CC)[C@@H](C)CC)[C@@H](C)O)[C@@H](C)O)C(C)C)C(=O)N[C@@H](C)C(=O)N[C@@H](Cc1c[nH]c2ccccc12)C(=O)N[C@@H](CC(C)C)C(=O)N[C@H](C(=O)N[C@@H](CCCCN)C(=O)NCC(=O)N[C@@H](CCCNC(=N)N)C(=O)NCC(=O)NCC(=O)N[C@@H](CCCCN)C(=O)O)C(C)C` [EC12-D-GLP-1], in the data set on normal ICR mice [1] (setting [4]), the “reduction of blood glucose at 15 minutes compared with Nor” value came to 11.9%, the “reduction of blood glucose at 30 minutes compared with Nor” value turned out to be 19.9% and the “reduction of blood glucose at 60 minutes compared with Nor” value turned out to be 17.4%. Moreover, in the data set on normal ICR mice [1] (duodenal injection 10 μmol/kg, 0-60 min, mean), the “AUC (blood glucose-time curve)” value turned out to be 123.6 mg·h/dL. In addition, the “Blood glucose 0 min” value with normal ICR mice [1] (duodenal injection 10 μmol/kg, 0 min, mean) is 75.6 mg/dL. In the data set with normal ICR mice [1] (duodenal injection 10 μmol/kg, 15 min after oral glucose loading, mean), the “Blood glucose 15 min” value is listed as 120.8 mg/dL. Also, the “Blood glucose 30 min” value with normal ICR mice [1] (duodenal injection 10 μmol/kg, 30 min, mean) is 129.8 mg/dL. Moreover, the “Blood glucose 60 min” value with normal ICR mice [1] (duodenal injection 10 μmol/kg, 60 min, mean) was 141.1 mg/dL. Besides, the “Remaining peak area (%)/DPP-IV” value at DPP-IV (0.0 h) amounted to 100.0 ± 0.0%. This compound also gave a fraction remaining at 0.5 h, 25 μM on DPP-IV (isolated DPP-IV enzyme in buffer, pH 8, 0.5 h) of 79.1 ± 2.6%. At DPP-IV (isolated DPP-IV enzyme in buffer, pH 8, 2.0 h), this compound returned a share remaining at 2 h, 25 μM of 78.5 ± 1.1%. Besides, the share remaining at 4 h, 25 μM on DPP-IV (isolated DPP-IV enzyme in buffer, pH 8, 4.0 h) stood at 81.7 ± 0.8%. The compound also showed a fraction remaining at 8 h, 25 μM at DPP-IV (isolated DPP-IV enzyme in buffer, pH 8, 8.0 h) of 79.2 ± 2.6%. On DPP-IV (isolated DPP-IV enzyme in buffer, pH 8, 12.0 h), this compound returned a fraction remaining at 12 h, 25 μM of 80.7 ± 0.3%. For the same compound, the “Remaining peak area (%)/human serum” value in data set [3] (0.0 h, peptide 0.03 mM, 37° C.) is 100.0 ± 0.0%. For the same compound, in data set [3] (human, pH 7), the share remaining at 0.5 h, 0.03 mM came out at 94.6 ± 5.3%; the fraction remaining at 2 h, 0.03 mM stood at 69.3 ± 4%; the share remaining at 4 h, 0.03 mM was found to be 43.4 ± 1.7%; the fraction remaining at 8 h, 0.03 mM was determined as 5.7 ± 0.1%. For the same compound, the share remaining at 12 h, 0.03 mM in data set [3] (human, pH 7) amounted to 2.2 ± 0.1%. For the same compound, the “AUC (blood glucose-time curve)” value with normal ICR mice [2] (subcutaneous 1 μmol/kg, 0-120 min, mean) was 159.1 mg·h/dL. Besides, the “Blood glucose 0 min” value in the data set on normal ICR mice [2] (subcutaneous 1 μmol/kg, 0 min, oral glucose loading 2 g/kg, mean) came to 63.3 mg/dL. In the data set on normal ICR mice [2] (subcutaneous 1 μmol/kg, 30 min after oral glucose loading, mean), the “Blood glucose 30 min” value was 103.3 mg/dL. For the same compound, in the data set with normal ICR mice [2] (subcutaneous 1 μmol/kg, 60 min after oral glucose loading, mean), the “Blood glucose 60 min” value came out at 77.2 mg/dL. For the same compound, in the data set with normal ICR mice [2] (subcutaneous 1 μmol/kg, 120 min after oral glucose loading, mean), the “Blood glucose 120 min” value was determined as 67.6 mg/dL. Moreover, the “Remaining peak area (%)/elastase” value on elastase (1 h, 60 μM, pH 8) is listed as 17.8 ± 2.0%. Moreover, on elastase (setting [5]), the fraction remaining at 0.025 h, 60 μM turned out to be 90.2 ± 3%; the fraction remaining at 0.05 h, 60 μM amounted to 86 ± 1.7%; the fraction remaining at 0.075 h, 60 μM was 79.7 ± 3.5%; the share remaining at 0.1 h, 60 μM turned out to be 79.1 ± 2.2%. In addition, on elastase (setting [5]), the amount remaining at 0.15 h, 60 μM amounted to 74.5 ± 2.2%; the fraction remaining at 0.25 h, 60 μM amounted to 63.3 ± 0.7%; the fraction remaining at 0.5 h, 60 μM was 49.4 ± 0.9%; the share remaining at 1 h, 60 μM is roughly 20%.
